This assay has as its system patients with nocturnal leg muscle cramps. Briefly: Topically applied nitroglycerin (transdermal patch) in ten patients with nocturnal leg muscle cramps. It is filed as in vivo, human. The text has this:
The following Examples show the successful use of topically applied nitroglycerin in treating ten patients with nocturnal leg muscle cramps.

Take `O=[N+]([O-])OCC(CO[N+](=O)[O-])O[N+](=O)[O-]` [nitroglycerin]: the “relief in the frequency and severity of nocturnal muscle cramping (summary of the ten patients)” value (small amounts of nitroglycerin, even once daily) is reported as “moderate to significant relief”. For the setting “topically applied by a transdermal patch to the lower extremity”, the “relieving pain and cramping associated with nocturnal muscle cramps (observation)” value is “effective in relieving pain and cramping”. In addition, the “relief of pain and cramping associated with muscle cramps (early studies)” value (transdermal delivery at a rate of about 0.1 mg/hr) was “sufficient for relief of pain and cramping”.

Values taken from patent publication US20050095278A1, “Use of nitroglycerin to relieve nocturnal muscle cramps” (priority 2003, published 2005).
